Measurements reported in US20180185312A1, “METHOD AND COMPOSITION FOR PREVENTING OR TREATING IMMUNE ALLERGIC AIRWAY DISEASE” (Development Center for Biotechnology, priority 2016, published 2018).

Tests used:
[1] = system: IL-6; experiment: Cytokines in nasal irrigation solution, allergic rhinitis animal model: IL-6; assay type: in vivo; conditions: BALB/c mice, in comparison with the disease group, increasing amount of SAC
Protocol: (§1) 3. All animals were sacrificed at the end of the 4th week after being given the tested material, their nasal cavities were rinsed 3 times with 1 ml of physiological saline solution, then nasal irrigation solution was collected, centrifuged at 1000 rpm for 5 minutes at 4° C. to collect the supernatant solution, then store at −80° C. for preservation.

[2] = system: allergic rhinitis; experiment: Allergic rhinitis animal model: frequency of sneezing and nasal rubbing; assay type: in vivo, Mice (BALB/c)
Excerpt: Drug Efficacy Evaluation for Allergic Rhinitis in Animals 1. Species: Mice. 2. Strain: BALB/c. 8. Number of animals: The animals were divided into 5 groups, 4 to 5 animals per group, a total of 24 animals. [table] 1. The frequency of sneezing and nasal rubbing of the mice was observed once per week.

[3] = Conversion of effective amount from mouse to human by conversion factor W; conditions: converted from the mouse amount with conversion factor W 0.11
Protocol: For example, when being administered into a mouse, an effective amount of SAC is at least approximately 25 mg/kg; more preferably, an effective amount of SAC is approximately from 25 mg/kg to 100 mg/kg. When being administered into a person, an effective amount of SAC is at least approximately 2.75 mg/kg; more preferably, an effective amount is approximately from 2.75 mg/kg to 11 mg/kg. The conversion of an effective amount from animal to animal can be easily calculated by those skilled in the art based on known knowledge. For example, when an effective amount per kg for animal A is known and an effective amount per kg for animal B is to be calculated, look up table 1 first to find the conversion factor (W), then calculate as follows: An effective amount for animal B (mg/kg)=W×an effective amount for animal A (mg/kg) For example, in one of the examples of this disclosure, an effective amount of SAC being administered into a mouse was 25 mg/kg, which needs to be converted into an effective amount for a human. Animal A is a mouse and animal B is a human, the crossing point which is the conversion factor W is 0.11, therefore an effective amount for a human is 0.11×25 mg/kg=2.75 mg/kg. [table]

[4] = system: IL-9; experiment: Cytokines in nasal irrigation solution, allergic rhinitis animal model: IL-9; assay type: in vivo; conditions: BALB/c mice, in comparison with the disease group, increasing amount of SAC
Protocol: as §1

[5] = BALB/c mice, SAC 25, 50, 100 mpk p.o. twice per day, in comparison to the disease group

## C=CCSC[C@H](N)C(=O)O [SAC, S-allyl-L-Cysteine]
[1]
  level of IL-6 in nasal irrigation solution: decreased
[2]; [5]
  frequency of nasal rubbing: tended to decline
  frequency of sneezing: tended to decline
[2]; mouse, in one of the examples
  effective amount administered into a mouse: 25 mg/kg
[3]
  effective amount for a human: 2.75 mg/kg
[4]
  level of IL-9 in nasal irrigation solution: decreased
